{"source": "BindingDB's records for doi:10.1021/acschembio.6b00511", "about": "(Novartis Institutes For Biomedical Research, 2016)", "key": {"[1]": {"biological_target": "T1, Serine/threonine-protein kinase WNK1 [1-491] (Homo sapiens, UniProt Q9H4A3)", "T1 construct": "1-491", "T1 sequence (Q9H4A3 1-491)": "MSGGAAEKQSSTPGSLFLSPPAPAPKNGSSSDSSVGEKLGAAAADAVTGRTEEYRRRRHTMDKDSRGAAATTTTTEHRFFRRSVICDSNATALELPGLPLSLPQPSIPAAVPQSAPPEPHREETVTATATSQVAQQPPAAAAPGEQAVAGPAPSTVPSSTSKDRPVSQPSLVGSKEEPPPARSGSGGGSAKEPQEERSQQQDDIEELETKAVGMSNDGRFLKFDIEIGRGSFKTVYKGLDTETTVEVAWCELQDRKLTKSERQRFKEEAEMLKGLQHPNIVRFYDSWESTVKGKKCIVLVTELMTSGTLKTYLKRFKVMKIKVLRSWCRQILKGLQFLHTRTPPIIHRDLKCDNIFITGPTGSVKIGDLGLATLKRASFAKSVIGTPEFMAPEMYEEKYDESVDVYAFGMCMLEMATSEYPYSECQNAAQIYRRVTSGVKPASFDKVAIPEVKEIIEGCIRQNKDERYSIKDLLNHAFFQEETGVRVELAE", "experiment": "WNK1 Mobility Shift Assay", "details": "pH 7.5", "method": "A mixture of fluorescein labeled OSR1 peptide substrate (Toray Research Center, Inc.) and ATP was prepared with final concentrations of 10 and 25 μM, respectively, in 7 μL of reaction buffer [20 mM HEPES Na (pH 7.5), 1 mM MnCl2, 0.01% Tween 20, and 2 mM DTT]. Compounds at final concentrations from 0.003 to 100 μM in 1 μL were added to the peptide/ATP mixture at a final DMSO concentration of 10%. The reaction was initiated by the addition of 2 μL of GST-WNK1 (1−491; Carna Biosciences) that was 86% pure at a final concentration of 25 nM in a 384-well plate. After incubation for 3 h at 25 °C, where 15% conversion of the substrate to the product was observed, 10 μL of a stop buffer containing 0.2% coating-3 reagent with 2 mM EDTA was added. For 800 μM ATP, the WNK1 assay was performed for 50 min at 25 °C, where 15% conversion of the substrate to the product was observed. Aliquots from each well were transferred onto a four-sipper chip on a Labchip3"}, "[2]": {"biological_target": "T2, Serine/threonine-protein kinase WNK2 [166-489] (Homo sapiens, UniProt Q9Y3S1)", "T2 construct": "166-489", "T2 sequence (Q9Y3S1 166-489)": "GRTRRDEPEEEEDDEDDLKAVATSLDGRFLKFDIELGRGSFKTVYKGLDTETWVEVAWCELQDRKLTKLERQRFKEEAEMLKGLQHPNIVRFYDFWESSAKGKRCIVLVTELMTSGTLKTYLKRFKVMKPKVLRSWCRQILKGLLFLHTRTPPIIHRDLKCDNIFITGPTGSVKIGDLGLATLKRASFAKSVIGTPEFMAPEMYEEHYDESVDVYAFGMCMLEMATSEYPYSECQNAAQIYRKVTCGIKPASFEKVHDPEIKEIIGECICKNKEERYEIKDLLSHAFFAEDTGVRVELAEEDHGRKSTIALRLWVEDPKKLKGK", "experiment": "WNK In Vitro Radiometric Assays", "details": "pH 7.3", "method": "(§1) The assay utilized 5 to 10 nM of WNK1−4 protein compared to 25 nM used for mobility shift assay, enabling a more accurate comparison of selectivity among potent inhibitors. Assays measured the incorporation of 33P from [γ-33P]ATP into myelin basic protein (MBP) coated in the wells of 96-well ScintiPlates (PerkinElmer). Each well of the MBP-coated ScintiPlates held 100 μL of a solution containing 20 mM HEPES at pH 7.3, 5 mM MnCl2 (WNK1 and WNK4) or 3 mM MnCl2 (WNK2 and WNK3), 0.01% Tween-20 (WNK1, WNK3, and WNK4) or 0.02% Tween-20 (WNK2), 1 mM TCEP, 2% DMSO, 1 μM ATP (WNK1, WNK3, and WNK4) or 2 μM ATP (WNK2), 1 μCi [γ -33P]ATP (WNK1, WNK2, WNK4) or 0.25 μCi [γ-33P]ATP (WNK3), WNK kinase enzyme (5 nM WNK1, 10 nM WNK2, 5 nM WNK3, or 10 nM WNK4), and the compound at the desired concentration. The plate was sealed and mixed for 20 s at 800 rpm on a benchtop plate shaker. The plate was then placed in a 25 °C shaking incubator at 175 rpm. Reactio"}, "[3]": {"biological_target": "T1, Serine/threonine-protein kinase WNK1 [1-491]", "experiment": "WNK In Vitro Radiometric Assays", "details": "pH 7.3", "method": "as §1"}, "[4]": {"biological_target": "T3, Serine/threonine-protein kinase WNK3 [1-434] (Homo sapiens, UniProt Q9BYP7)", "T3 construct": "1-434", "T3 sequence (Q9BYP7 1-434)": "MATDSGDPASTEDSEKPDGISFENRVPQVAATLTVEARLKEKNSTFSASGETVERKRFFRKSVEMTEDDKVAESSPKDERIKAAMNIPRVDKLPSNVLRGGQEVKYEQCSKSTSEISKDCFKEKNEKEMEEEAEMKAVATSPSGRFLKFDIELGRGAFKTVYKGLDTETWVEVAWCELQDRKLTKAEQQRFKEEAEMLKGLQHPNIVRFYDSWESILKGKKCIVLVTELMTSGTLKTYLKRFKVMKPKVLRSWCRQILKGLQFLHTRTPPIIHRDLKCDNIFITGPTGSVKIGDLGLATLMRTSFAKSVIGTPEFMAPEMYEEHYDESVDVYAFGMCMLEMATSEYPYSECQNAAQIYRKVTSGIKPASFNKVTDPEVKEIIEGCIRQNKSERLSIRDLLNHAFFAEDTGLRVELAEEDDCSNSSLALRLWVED", "experiment": "WNK In Vitro Radiometric Assays", "details": "pH 7.3", "method": "as §1"}, "[5]": {"biological_target": "T4, Serine/threonine-protein kinase WNK4 [1-444] (Homo sapiens, UniProt Q96J92)", "T4 construct": "1-444", "T4 sequence (Q96J92 1-444)": "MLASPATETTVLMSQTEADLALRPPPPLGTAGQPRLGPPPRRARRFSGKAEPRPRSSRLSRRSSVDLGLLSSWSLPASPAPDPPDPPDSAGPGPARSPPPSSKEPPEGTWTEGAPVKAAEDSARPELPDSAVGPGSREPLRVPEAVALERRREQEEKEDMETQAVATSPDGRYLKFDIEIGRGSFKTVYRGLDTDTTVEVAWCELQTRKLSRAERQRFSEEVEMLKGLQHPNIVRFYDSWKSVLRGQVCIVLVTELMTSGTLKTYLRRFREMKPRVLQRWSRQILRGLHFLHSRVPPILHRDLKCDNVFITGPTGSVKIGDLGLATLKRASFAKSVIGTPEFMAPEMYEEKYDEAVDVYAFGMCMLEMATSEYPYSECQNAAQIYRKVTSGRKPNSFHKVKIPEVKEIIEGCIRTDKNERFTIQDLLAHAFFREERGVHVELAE", "experiment": "WNK In Vitro Radiometric Assays", "details": "pH 7.3", "method": "as §1"}}, "note": "“And” between values parts separate entries of the source, which are not always exact repeats. Equal values may be shown once.", "data": [{"compound": "CNc1nc(-c2ccc3c(c2)CCN3C(=O)c2ccccc2OCc2ccc(Cl)cc2)cs1", "note": "[(2-((4-Chlorobenzyl)oxy)phenyl)(5-(2-(methylamino)thiazol-4-yl)indolin-1-yl)methanone (Compound 2)]", "values": [{"measurement": "IC50", "setting": "[1]", "result": "180 nM and 150 nM"}, {"measurement": "IC50", "setting": "[2]", "result": 50, "unit": "nM"}, {"measurement": "IC50", "setting": "[3]", "result": 64, "unit": "nM"}, {"measurement": "IC50", "setting": "[4]", "result": 377, "unit": "nM"}, {"measurement": "IC50", "setting": "[5]", "result": 187, "unit": "nM"}]}]}
